Test results from PubChem BioAssay (NCI).
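Protocol summary: plate cells (96-well), add compound at 5 concentrations, incubate 48 h, interpolate endpoints linearly. TGI marks complete inhibition of growth.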

Tests used:
Experiment in all cases: inhibition of tumour cell growth, NCI panel, 48 h
HCT-116 colon = tested on: HCT-116 colon
HL-60(TB) leukemia = tested on: HL-60(TB) leukemia
A498 renal = tested on: A498 renal
IGROV1 ovarian = tested on: IGROV1 ovarian
OVCAR-4 ovarian = tested on: OVCAR-4 ovarian
MDA-N = tested on: MDA-N
ACHN renal = tested on: ACHN renal
SW-620 colon = tested on: SW-620 colon
HCT-15 colon = tested on: HCT-15 colon
T-47D breast = tested on: T-47D breast
SK-OV-3 ovarian = tested on: SK-OV-3 ovarian
BT-549 breast = tested on: BT-549 breast
TK-10 renal = tested on: TK-10 renal
COLO 205 colon = tested on: COLO 205 colon
NCI-H522 lung = tested on: NCI-H522 lung
HCC-2998 colon = tested on: HCC-2998 colon
786-0 renal = tested on: 786-0 renal
MOLT-4 leukemia = tested on: MOLT-4 leukemia
SF-539 CNS = tested on: SF-539 CNS
SF-295 CNS = tested on: SF-295 CNS
SF-268 CNS = tested on: SF-268 CNS
RXF 393 renal = tested on: RXF 393 renal
NCI-H226 lung = tested on: NCI-H226 lung
HS 578T breast = tested on: HS 578T breast
OVCAR-5 ovarian = tested on: OVCAR-5 ovarian
SNB-75 CNS = tested on: SNB-75 CNS
MDA-MB-231 breast = tested on: MDA-MB-231 breast
UO-31 renal = tested on: UO-31 renal
A549 NSCLC = tested on: A549 NSCLC
HOP-62 NSCLC = tested on: HOP-62 NSCLC
SNB-19 CNS = tested on: SNB-19 CNS
UACC-257 melanoma = tested on: UACC-257 melanoma
SN12C renal = tested on: SN12C renal
NCI-H460 lung = tested on: NCI-H460 lung
OVCAR-8 ovarian = tested on: OVCAR-8 ovarian
U251 CNS = tested on: U251 CNS
MCF7 breast = tested on: MCF7 breast
SR leukemia = tested on: SR leukemia
KM12 colon = tested on: KM12 colon
MDA-MB-435 = tested on: MDA-MB-435
CAKI-1 renal = tested on: CAKI-1 renal
DU-145 prostate = tested on: DU-145 prostate
NCI-H23 lung = tested on: NCI-H23 lung
HT29 colon = tested on: HT29 colon
LOX IMVI melanoma = tested on: LOX IMVI melanoma
K-562 leukemia = tested on: K-562 leukemia
CCRF-CEM leukemia = tested on: CCRF-CEM leukemia
SK-MEL-5 melanoma = tested on: SK-MEL-5 melanoma
M14 melanoma = tested on: M14 melanoma
PC-3 prostate = tested on: PC-3 prostate
HOP-92 NSCLC = tested on: HOP-92 NSCLC
SK-MEL-2 melanoma = tested on: SK-MEL-2 melanoma
EKVX NSCLC = tested on: EKVX NSCLC
UACC-62 melanoma = tested on: UACC-62 melanoma
OVCAR-3 ovarian = tested on: OVCAR-3 ovarian
RPMI-8226 leukemia = tested on: RPMI-8226 leukemia
MALME-3M melanoma = tested on: MALME-3M melanoma
NCI/ADR-RES ovarian = tested on: NCI/ADR-RES ovarian
SK-MEL-28 melanoma = tested on: SK-MEL-28 melanoma

Question: `CN(C)c1ccc(C(=NNC(=O)c2cc3ccccc3[nH]2)c2ccc(N(C)C)cc2)cc1` was tested. Which TGI (HCT-116 colon) did it give?
Answer: > 34.2 µM

Question: What about the TGI (HL-60(TB) leukemia) of the same compound?
Answer: 0.678 µM

Question: And the TGI (A498 renal)?
Answer: 26.3 µM

Question: What about the TGI (IGROV1 ovarian) of the same compound?
Answer: 25.9 µM

Question: What about the TGI (OVCAR-4 ovarian) of the same compound?
Answer: > 100 µM

Question: What about the TGI (MDA-N) of the same compound?
Answer: 1.49 µM

Question: And the TGI (ACHN renal)?
Answer: 24.9 µM

Question: And the TGI (SW-620 colon)?
Answer: > 100 µM

Question: And the TGI (HCT-15 colon)?
Answer: > 100 µM

Question: And the TGI (T-47D breast)?
Answer: > 100 µM

Question: What about the TGI (SK-OV-3 ovarian) of the same compound?
Answer: > 87.7 µM

Question: And the TGI (BT-549 breast)?
Answer: > 44.8 µM

Question: What about the TGI (TK-10 renal) of the same compound?
Answer: 30.1 µM

Question: What about the TGI (COLO 205 colon) of the same compound?
Answer: > 20.7 µM

Question: What about the TGI (NCI-H522 lung) of the same compound?
Answer: 2.53 µM

Question: What about the TGI (HCC-2998 colon) of the same compound?
Answer: 1.48 µM

Question: What about the TGI (786-0 renal) of the same compound?
Answer: 19.8 µM

Question: And the TGI (MOLT-4 leukemia)?
Answer: > 100 µM

Question: What about the TGI (SF-539 CNS) of the same compound?
Answer: 8.04 µM

Question: What about the TGI (SF-295 CNS) of the same compound?
Answer: 5.52 µM

Question: And the TGI (SF-268 CNS)?
Answer: 5.31 µM

Question: What about the TGI (RXF 393 renal) of the same compound?
Answer: 15 µM

Question: And the TGI (NCI-H226 lung)?
Answer: > 100 µM

Question: And the TGI (HS 578T breast)?
Answer: 3.74 µM

Question: And the TGI (OVCAR-5 ovarian)?
Answer: > 45.5 µM

Question: And the TGI (SNB-75 CNS)?
Answer: 16.9 µM

Question: What about the TGI (MDA-MB-231 breast) of the same compound?
Answer: 12.9 µM

Question: And the TGI (UO-31 renal)?
Answer: > 59.3 µM

Question: What about the TGI (A549 NSCLC) of the same compound?
Answer: > 100 µM

Question: And the TGI (HOP-62 NSCLC)?
Answer: 33.7 µM

Question: And the TGI (SNB-19 CNS)?
Answer: > 44.5 µM

Question: What about the TGI (UACC-257 melanoma) of the same compound?
Answer: > 100 µM

Question: What about the TGI (SN12C renal) of the same compound?
Answer: > 93.9 µM

Question: What about the TGI (NCI-H460 lung) of the same compound?
Answer: > 100 µM

Question: And the TGI (OVCAR-8 ovarian)?
Answer: > 100 µM

Question: And the TGI (U251 CNS)?
Answer: 14.5 µM

Question: What about the TGI (MCF7 breast) of the same compound?
Answer: > 51 µM

Question: What about the TGI (SR leukemia) of the same compound?
Answer: > 100 µM

Question: And the TGI (KM12 colon)?
Answer: > 100 µM

Question: And the TGI (MDA-MB-435)?
Answer: 0.371 µM

Question: What about the TGI (CAKI-1 renal) of the same compound?
Answer: 45.7 µM

Question: What about the TGI (DU-145 prostate) of the same compound?
Answer: > 100 µM

Question: And the TGI (NCI-H23 lung)?
Answer: > 32.9 µM

Question: What about the TGI (HT29 colon) of the same compound?
Answer: 9.93 µM

Question: And the TGI (LOX IMVI melanoma)?
Answer: > 100 µM

Question: And the TGI (K-562 leukemia)?
Answer: > 100 µM

Question: And the TGI (CCRF-CEM leukemia)?
Answer: > 25.2 µM

Question: And the TGI (SK-MEL-5 melanoma)?
Answer: > 100 µM

Question: What about the TGI (M14 melanoma) of the same compound?
Answer: 29 µM

Question: What about the TGI (PC-3 prostate) of the same compound?
Answer: > 66.8 µM

Question: What about the TGI (HOP-92 NSCLC) of the same compound?
Answer: 31.8 µM

Question: What about the TGI (SK-MEL-2 melanoma) of the same compound?
Answer: 3.97 µM

Question: And the TGI (EKVX NSCLC)?
Answer: > 100 µM

Question: And the TGI (UACC-62 melanoma)?
Answer: > 54 µM

Question: And the TGI (OVCAR-3 ovarian)?
Answer: 1.81 µM

Question: What does the source list for `Cn1c(N)c(/C=N/NC(=O)CC#N)c(=O)n(C)c1=O`?
Answer: TGI (HCT-116 colon): > 100 µM; TGI (A498 renal): > 100 µM; TGI (IGROV1 ovarian): > 100 µM; TGI (OVCAR-4 ovarian): > 100 µM; TGI (MDA-N): > 100 µM; TGI (ACHN renal): > 100 µM; TGI (SW-620 colon): > 100 µM; TGI (HCT-15 colon): > 100 µM; TGI (T-47D breast): > 100 µM; TGI (SK-OV-3 ovarian): > 100 µM; TGI (BT-549 breast): > 100 µM; TGI (TK-10 renal): > 100 µM; TGI (COLO 205 colon): > 100 µM; TGI (NCI-H522 lung): > 100 µM; TGI (RPMI-8226 leukemia): > 100 µM; TGI (HCC-2998 colon): > 100 µM; TGI (786-0 renal): > 100 µM; TGI (MOLT-4 leukemia): > 100 µM; TGI (SF-295 CNS): > 100 µM; TGI (SF-268 CNS): > 100 µM; TGI (RXF 393 renal): > 100 µM; TGI (NCI-H226 lung): > 100 µM; TGI (HS 578T breast): > 100 µM; TGI (OVCAR-5 ovarian): > 100 µM; TGI (SNB-75 CNS): > 100 µM; TGI (MDA-MB-231 breast): > 100 µM; TGI (UO-31 renal): > 100 µM; TGI (A549 NSCLC): > 100 µM; TGI (HOP-62 NSCLC): > 100 µM; TGI (SNB-19 CNS): > 100 µM; TGI (UACC-257 melanoma): > 100 µM; TGI (SN12C renal): > 100 µM; TGI (NCI-H460 lung): > 100 µM; TGI (OVCAR-8 ovarian): > 100 µM; TGI (U251 CNS): > 100 µM; TGI (MCF7 breast): > 100 µM; TGI (MALME-3M melanoma): > 100 µM; TGI (SR leukemia): > 100 µM; TGI (KM12 colon): > 100 µM; TGI (MDA-MB-435): > 100 µM; TGI (CAKI-1 renal): > 100 µM; TGI (DU-145 prostate): > 100 µM; TGI (NCI/ADR-RES ovarian): > 100 µM; TGI (HT29 colon): > 100 µM; TGI (LOX IMVI melanoma): > 100 µM; TGI (CCRF-CEM leukemia): > 100 µM; TGI (SK-MEL-5 melanoma): > 100 µM; TGI (M14 melanoma): > 100 µM; TGI (SK-MEL-28 melanoma): > 100 µM; TGI (PC-3 prostate): > 100 µM; TGI (SK-MEL-2 melanoma): > 100 µM; TGI (EKVX NSCLC): > 100 µM; TGI (UACC-62 melanoma): > 100 µM; TGI (OVCAR-3 ovarian): > 100 µM
